{"source": "patent US9109043B2", "about": "(Tokyo Institute of Technology, priority 2010, dated 2015)", "key": {"[1]": {"biological_target": "T1, insulin secretion regulation factor (ATIS1) (Mus musculus, UniProt Q6P5E4)", "T1 construct": "made in house; host or cells: cell-free: TNT Quick coupled transcription/translation system (Promega)", "T1 sequence (Q6P5E4 43-1551)": "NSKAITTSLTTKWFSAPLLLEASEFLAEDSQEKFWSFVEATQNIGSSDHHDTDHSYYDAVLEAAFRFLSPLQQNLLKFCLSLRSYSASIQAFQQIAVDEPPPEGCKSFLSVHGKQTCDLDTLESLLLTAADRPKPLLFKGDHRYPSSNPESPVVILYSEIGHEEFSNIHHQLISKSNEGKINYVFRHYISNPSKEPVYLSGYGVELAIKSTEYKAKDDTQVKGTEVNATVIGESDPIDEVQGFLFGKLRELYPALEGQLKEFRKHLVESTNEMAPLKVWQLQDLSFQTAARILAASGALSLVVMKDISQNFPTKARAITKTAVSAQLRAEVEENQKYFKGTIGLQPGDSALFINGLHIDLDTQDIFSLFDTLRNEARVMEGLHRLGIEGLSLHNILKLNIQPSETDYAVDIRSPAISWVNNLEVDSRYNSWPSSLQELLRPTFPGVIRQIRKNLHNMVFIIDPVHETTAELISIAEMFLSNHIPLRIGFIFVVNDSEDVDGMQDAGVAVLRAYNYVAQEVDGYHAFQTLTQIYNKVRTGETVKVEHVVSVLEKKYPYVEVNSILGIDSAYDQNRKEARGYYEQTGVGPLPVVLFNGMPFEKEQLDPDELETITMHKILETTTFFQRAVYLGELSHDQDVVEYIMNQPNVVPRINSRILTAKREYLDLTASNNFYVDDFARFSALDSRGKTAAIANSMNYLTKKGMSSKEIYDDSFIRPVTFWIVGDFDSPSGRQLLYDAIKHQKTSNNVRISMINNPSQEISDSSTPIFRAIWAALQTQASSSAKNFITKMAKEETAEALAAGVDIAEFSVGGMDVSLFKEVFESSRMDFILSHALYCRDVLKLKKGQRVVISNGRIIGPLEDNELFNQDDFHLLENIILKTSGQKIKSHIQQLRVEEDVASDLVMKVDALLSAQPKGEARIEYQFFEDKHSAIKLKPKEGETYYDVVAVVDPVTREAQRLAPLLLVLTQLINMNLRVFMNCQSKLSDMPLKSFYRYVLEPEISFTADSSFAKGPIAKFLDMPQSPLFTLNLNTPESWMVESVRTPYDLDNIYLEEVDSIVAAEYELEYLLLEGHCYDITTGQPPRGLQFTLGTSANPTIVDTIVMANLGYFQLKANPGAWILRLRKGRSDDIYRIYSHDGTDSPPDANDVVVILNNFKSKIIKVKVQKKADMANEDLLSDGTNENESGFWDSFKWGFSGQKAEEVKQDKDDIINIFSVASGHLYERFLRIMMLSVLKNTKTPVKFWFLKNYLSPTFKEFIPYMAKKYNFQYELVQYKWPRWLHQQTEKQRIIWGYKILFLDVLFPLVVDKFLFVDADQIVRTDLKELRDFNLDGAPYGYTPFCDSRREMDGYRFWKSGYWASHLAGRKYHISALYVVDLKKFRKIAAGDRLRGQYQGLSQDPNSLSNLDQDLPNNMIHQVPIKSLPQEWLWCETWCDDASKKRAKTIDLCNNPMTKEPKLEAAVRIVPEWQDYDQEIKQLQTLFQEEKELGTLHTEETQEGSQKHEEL", "assay": "Release of radiolabelled ATIS1 from arginine-immobilized agarose by amino acids and sugars", "format": "binding", "settings": "silver stained gel, FIG. 8A"}, "[2]": {"system": "NIT-1 cells in which insulin secretion regulation factor was forcibly expressed", "assay": "Insulin secretion by NIT-1 cells with forced expression of insulin secretion regulation factor (ELISA)", "format": "cell-based, mouse"}, "wild type NIT-1 cells": {"system": "wild type NIT-1 cells", "assay": "Arginine-induced insulin secretion by wild type NIT-1 cells (ELISA)", "format": "cell-based, mouse", "settings": "arginine 0.1-20 mM, 10 minutes, FIG. 4"}, "[3]": {"biological_target": "T1, insulin secretion regulation factor (ATIS1)", "assay": "Release of radiolabelled ATIS1 from insulin-immobilized agarose by test substance", "format": "binding"}, "[4]": {"system": "transformed cultured cells secreting fluorescently labeled insulin", "assay": "Fluorescence microscopy of transformed cultured cells secreting fluorescently labeled insulin", "format": "cell-based", "settings": "arginine 10 mM, 10 and 60 seconds after administration and thereafter, data not shown", "method": "Thus, transformed cultured cells were prepared so as to secrete fluorescently labeled insulin. Using the cells, it was possible to observe insulin secretion by arginine addition and temporal changes in the intracellular localization of insulin with a fluorescent microscope. […] This experimental system can also be applied to the screening of a candidate substance, other than arginine, that promotes insulin secretion."}, "[5]": {"biological_target": "T2, insulin secretion regulation factor (Mus musculus, UniProt Q6P5E4)", "assay": "Competitive inhibition of radiolabelled arginine binding to insulin secretion regulation factor", "set-up": "made in house; host or cells: Escherichia coli", "settings": "increasing concentration of cold competitor, FIG. 2B, FIG. 3A"}, "[6]": {"biological_target": "T2, insulin secretion regulation factor", "assay": "Disconnection of insulin from insulin secretion regulation factor by arginine", "format": "binding", "set-up": "made in house; host or cells: Escherichia coli", "settings": "depending on amount of arginine added, FIG. 3C"}, "[7]": {"biological_target": "T2, insulin secretion regulation factor", "assay": "Partial protease digestion of radiolabelled insulin secretion regulation factor in presence of amino acid", "format": "binding", "set-up": "made in house; host or cells: cell-free: TNT Quick coupled transcription/translation system (Promega)", "settings": "100 μM arginine, on ice 10 minutes, vs absence, phenylalanine or leucine"}}, "note": "“Also recorded” adds a separate entry of the source. Read-outs that look alike come from different tables or passages of the source.", "data": [{"smiles": "N[C@@H](Cc1ccccc1)C(=O)O", "note": "[Phenylalanine, phenylalanine]", "values": [{"measurement": "interaction (binding) with insulin secretion regulation factor ATIS1", "setting": "[1]", "value": "did not bind to ATIS1"}]}, {"smiles": "N=C(N)NCCC[C@H](N)C(=O)O", "note": "[arginine]", "values": [{"measurement": "amount of insulin secreted per unit time", "setting": "[2]", "value": "about 2 pg/cell/min"}, {"measurement": "arginine-induced insulin secretion", "setting": "wild type NIT-1 cells", "value": "depending on arginine concentration, insulin secretion is promoted"}, {"measurement": "competition with insulin for insulin secretion regulation factor", "setting": "[3]", "value": "competes with insulin"}, {"measurement": "interaction (binding) with insulin secretion regulation factor ATIS1", "setting": "[1]", "value": "interacted with the insulin secretion regulation factor"}, {"measurement": "intracellular localization and secretion of fluorescently labeled insulin", "setting": "[4]", "value": "being extracellularly secreted thereafter resulting in the disappearance of fluorescence"}, {"measurement": "radiolabelled arginine disconnected from insulin secretion regulation factor", "setting": "[5]", "value": "the radiolabelled arginine that had been bound was disconnected from insulin secretion regulation factor; also recorded: the amount of disconnected radiolabelled arginine increased"}, {"measurement": "insulin disconnected from insulin secretion regulation factor", "setting": "[6]", "value": "the amount of disconnected insulin increases"}, {"measurement": "resistance of insulin secretion regulation factor to chymotrypsin partial digestion", "setting": "[7]", "value": "significant resistance to chymotrypsin partial digestion"}, {"measurement": "resistance of insulin secretion regulation factor to trypsin partial digestion", "setting": "[7]; FIG. 2C", "value": "significant resistance to trypsin partial digestion"}]}, {"smiles": "CC(C)=CCc1cc(/C=C/C(=O)O)ccc1O", "note": "[drupanin]", "values": [{"measurement": "amount of insulin secreted per unit time", "setting": "[2]; 10 mM substance, cultured 10 minutes, FIG. 6A", "value": "about 2 pg/cell/min"}, {"measurement": "competition with insulin for insulin secretion regulation factor", "setting": "[3]; autoradiography, FIG. 6B", "value": "competes with insulin"}]}, {"smiles": "NCCCC[C@H](N)C(=O)O", "note": "[lysine]", "values": [{"measurement": "interaction (binding) with insulin secretion regulation factor ATIS1", "setting": "[1]", "value": "interacted with the insulin secretion regulation factor"}]}, {"smiles": "NC(=O)NCCC[C@H](N)C(=O)O", "note": "[citrulline]", "values": [{"measurement": "interaction (binding) with insulin secretion regulation factor ATIS1", "setting": "[1]", "value": "did not exhibit the ATIS1 binding activity"}]}, {"smiles": "NCCC[C@H](N)C(=O)O", "note": "[ornithine]", "values": [{"measurement": "interaction (binding) with insulin secretion regulation factor ATIS1", "setting": "[1]", "value": "interacted with the insulin secretion regulation factor"}]}]}
